Data on 13 compounds can be found in patent US20090209536A1, “AMINOQUINAZOLINE CANNABINOID RECEPTOR MODULATORS FOR TREATMENT OF DISEASE” (KALYPSYS, INC., priority 2007, published 2009).

For experiment [1], the target named is T1, human cannabinoid receptor type 1 (Homo sapiens, UniProt P21554).
T1 construct: purchased Perkin Elmer RBHCB1M; host or cells: HEK 293 EBNA cells
The experiment in a line: Human CB1 Radioligand Binding Assay (basis of selectivity, CB2 vs. CB1). Particulars: CB1: HEK 293 EBNA cells expressing human CB1; CB2: CHO CB2 membranes. As to the method:
2. Human CB1 Radioligand Binding Assay
The incubation buffer was composed of 50 mM Tris-HCl pH 7.4, 2.5 mM EDTA, 5 mM MgCl2, 5.0 mg/ml fatty acid free BSA and the wash buffer was composed of 50 mM Tris-HCl pH 7.4, 2.5 mM EDTA, 5 mM MgCl2, 0.5 mg/ml fatty acid free BSA.

Experiment [2] has as its target T2, human cannabinoid receptor type 2 (Homo sapiens, UniProt P34972).
T2 construct: expressed in transfected cells; membrane preparation
The experiment is described as follows: Human CB2 Radioligand Binding Assay. The following applies: competition with [3H] CP-55,940; membranes from stably transfected CHO CB2 cells; read-out: CB2 Ligand Binding Asssay EC50. The method, boiled down: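 Filtration competition binding on membranes from CHO cells stably expressing human CB2, with [3H]CP-55,940 at its lot-specific Kd, in 50 mM Tris-HCl pH 7.4, EGTA, MgCl2, 5 mg/ml BSA, 1% DMSO; 90 min at 30° C. Compounds at 10 uM single point or dose-response; bound radioactivity by scintillation, 100 nM CP-55,940 as 100% efficacy.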

T2 sequence (P34972 whole entry): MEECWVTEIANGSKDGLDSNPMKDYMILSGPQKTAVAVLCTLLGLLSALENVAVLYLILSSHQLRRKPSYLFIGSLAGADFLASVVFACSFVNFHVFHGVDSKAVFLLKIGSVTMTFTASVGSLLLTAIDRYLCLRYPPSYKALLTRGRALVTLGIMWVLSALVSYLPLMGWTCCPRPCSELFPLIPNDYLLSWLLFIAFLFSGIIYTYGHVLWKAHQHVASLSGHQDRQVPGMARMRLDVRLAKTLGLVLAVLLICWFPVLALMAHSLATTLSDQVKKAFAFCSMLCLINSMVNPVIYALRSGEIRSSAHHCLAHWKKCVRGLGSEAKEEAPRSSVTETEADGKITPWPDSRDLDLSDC
T1 sequence (P21554 whole entry): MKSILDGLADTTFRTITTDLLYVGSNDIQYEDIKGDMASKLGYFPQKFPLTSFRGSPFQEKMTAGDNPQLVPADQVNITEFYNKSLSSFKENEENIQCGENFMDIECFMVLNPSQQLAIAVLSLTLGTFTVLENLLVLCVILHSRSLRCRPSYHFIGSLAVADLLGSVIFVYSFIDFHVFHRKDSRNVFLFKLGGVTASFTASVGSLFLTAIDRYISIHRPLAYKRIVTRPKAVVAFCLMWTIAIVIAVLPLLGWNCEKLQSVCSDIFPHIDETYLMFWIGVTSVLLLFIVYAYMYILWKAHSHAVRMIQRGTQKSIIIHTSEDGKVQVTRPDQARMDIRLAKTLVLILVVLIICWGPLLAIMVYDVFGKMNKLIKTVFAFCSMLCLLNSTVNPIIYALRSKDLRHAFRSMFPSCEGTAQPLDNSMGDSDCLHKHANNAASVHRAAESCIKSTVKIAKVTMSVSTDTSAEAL

A word on the EC50: it is the midpoint of the concentration-response curve. As to `O=S(=O)(NCc1nc(N2CCCC2)c2ccccc2n1)c1ccc2ccccc2c1` [Example 299, N-((4-(Pyrrolidin-1-yl)quinazolin-2-yl)methyl)naphthalene-2-sulfonamide], the “Selectivity, CB2 vs. CB1” value in experiment [1] is “+ (+ indicates > 10−fold)”. In addition, the 50% effective concentration (EC50) in experiment [2] is over 1000 nM.

Take `CC(C)(C)c1ccc2c(N3CCCC3)nc(Nc3ccc(F)cc3F)nc2c1` [Example 288, 7-tert-Butyl-N-(2,4-difluorophenyl)-4-(pyrrolidin-1-yl)quinazolin-2-amine]: the “Selectivity, CB2 vs. CB1” value in experiment [1] was “+ (+ indicates > 10−fold)”. Besides, the EC50 in experiment [2] is under 1000 nM.

For `Clc1ccc(-c2nc(N3CCc4ccccc4C3)c3ccccc3n2)cc1` [Example 123, 2-(4-Chlorophenyl)-4-(3,4-dihydro-1H-isoquinolin-2-yl)quinazoline], in experiment [1], the “Selectivity, CB2 vs. CB1” value is listed as “− (− indicates ≦ 10−fold)”. Further, in experiment [2], the EC50 was over 1000 nM.

Regarding `FC(F)(F)c1ccc(Cc2nc(N3CCCCC3)c3ccccc3n2)cc1` [Example 195, 4-(Piperidin-1-yl)-2-(4-(trifluoromethyl)benzyl)quinazoline], in experiment [1], the “Selectivity, CB2 vs. CB1” value was “− (− indicates ≦ 10−fold)”. In addition, in experiment [2], the EC50 is over 1000 nM.

`COc1ccc2c(N3CCN(C)CC3)nc(C3CCCCC3)nc2c1` [Example 158, 2-Cyclohexyl-7-methoxy-4-(4-methylpiperazin-1-yl)quinazoline]: the “Selectivity, CB2 vs. CB1” value in experiment [1] is recorded as “− (− indicates ≦ 10−fold)”. In addition, in experiment [2], the EC50 is over 1000 nM.

On to `CCOC(=O)N1CCN(c2nc(-c3ccccc3Cl)nc3cc(C(=O)O)ccc23)CC1` [Example 318, 2-(2-Chlorophenyl)-4-(4-(ethoxycarbonyl)piperazin-1-yl)quinazoline-7-carboxylic acid], for which, in experiment [1], the “Selectivity, CB2 vs. CB1” value is on record as “− (− indicates ≦ 10−fold)”. Moreover, the EC50 in experiment [2] was over 1000 nM.

In the case of `CC1CCN(c2nc(-c3ccccc3Cl)nc3ccc(C(=O)NC4CCCCC4)cc23)CC1` [Example 312, 2-(2-Chlorophenyl)-N-cyclohexyl-4-(4-methylpiperidin-1-yl)quinazoline-6-carboxamide], the “Selectivity, CB2 vs. CB1” value in experiment [1] is “− (− indicates ≦ 10−fold)”. In addition, in experiment [2], the EC50 is under 1000 nM.

Turning to `COc1ccc(Oc2nc(N3CCCC3)c3cc(OC)c(OC)cc3n2)cc1` [Example 297, 6,7-Dimethoxy-2-(4-methoxyphenoxy)-4-(pyrrolidin-1-yl)quinazoline], the “Selectivity, CB2 vs. CB1” value in experiment [1] is recorded as “− (− indicates ≦ 10−fold)”. Further, in experiment [2], the EC50 was over 1000 nM.

Take `CN1CCN(c2nc(-c3ccccc3Cl)nc3ccccc23)C(=O)C1` [Example 74, 1-(2-(2-Chlorophenyl)quinazolin-4-yl)-4-methylpiperazin-2-one]: in experiment [1], the “Selectivity, CB2 vs. CB1” value is recorded as “− (− indicates ≦ 10−fold)”. Moreover, in experiment [2], the EC50 is over 1000 nM.

On to `Clc1ccccc1-c1nc(N2CCCC2)c2ccccc2n1` [Example 53, 2-(2-Chlorophenyl)-4-(pyrrolidin-1-yl)quinazoline], for which, in experiment [1], the “Selectivity, CB2 vs. CB1” value was “+ (+ indicates > 10−fold)”. For the same compound, the EC50 in experiment [2] is over 1000 nM.

Take `COc1ccc(CNC(=O)c2ccc3c(N4CCN(C(C)=O)CC4)nc(-c4ccccc4Cl)nc3c2)cc1` [Example 325, 4-(4-Acetylpiperazin-1-yl)-2-(2-chlorophenyl)-N-(4-methoxybenzyl)quinazoline-7-carboxamide]: the “Selectivity, CB2 vs. CB1” value in experiment [1] is given as “− (− indicates ≦ 10−fold)”. Moreover, in experiment [2], the EC50 is over 1000 nM.

For `CNC(=O)N1CCN(c2nc(-c3ccccc3Cl)nc3ccccc23)CC1` [Example 88, 4-(2-(2-Chlorophenyl)quinazolin-4-yl)-N-methylpiperazine-1-carboxamide], the “Selectivity, CB2 vs. CB1” value in experiment [1] is “− (− indicates ≦ 10−fold)”. Also, the EC50 in experiment [2] is over 1000 nM.

On to `CCOc1ccc(Nc2nc(-c3ccccc3Cl)nc3ccccc23)cc1` [Example 332, 2-(2-Chlorophenyl)-N-(4-ethoxyphenyl)quinazolin-4-amine], for which the “Selectivity, CB2 vs. CB1” value in experiment [1] is “− (− indicates ≦ 10−fold)”. In experiment [2], the EC50 is over 1000 nM.
